Measurements taken from patent US20070077642A1, “Steroid receptor modulation of gene expression” (priority 2002, published 2007).
Where two headings read alike, the source gives them in different places.

What was measured:
A. nidulans = experiment: Growth test on plates at different ligand concentrations; assay type: cell-based, Aspergillus nidulans
Description: Induction of estrogen receptor expression via the addition of […], 100 nM, and 1 μM of DES inducer to media plates harboring the Xgal substrate for LacZ in the transformed strain: A. nidulans argB2, riboA1, pyrG 89, pyroA4. FIG. 6. […] Activation of the reporter construct at 1 nM DES was shown in the transformed fungi.

[1] = tested on: alcA promoter of A. nidulans; conditions: pRM alcA, induction with ethanol
Description: To test the different inducer concentrations the strains were harvested by filtration and aliquots were transferred to fresh media containing the different inducer concentrations and additionally grown for 8 hours. At the end mycelium was harvested by filtration and frozen in liquid nitrogen. For time curve experiments the strains were harvested and additionally grown for 24 hours and after 2, 4, 6, 8 and 24 hours samples were taken and frozen in liquid nitrogen. […] An equal amount of fungal cell mass has been transferred to fresh medium and aliquots have been subjected to induction by the agonists. After sampling at desired time points the wet cell pellet has been processed as described.
NaPO4 buffer and glasbeads (0.75-1.0 mm) were added to the frozen mycelia and cells were destroyed by the use of the Hybaid RiboLyser. Cell debris was separated by centrifugation and the supernatant was used for enzyme assays Protein concentration was determined using the BCA assay of Pierce and the specific β-galactosidase activity was determined by the use of the protocol of Invitrogen.
β-gal activity in each pERE constructs were assayed after induction with 1 nM DES. The alcA expression was also assayed for comparison.

Structure (SMILES)	growth of strains transformed with reporter constructs (A. nidulans; strains transformed with reporter constructs, 100 nM DES)	growth of strains transformed with the hER (A. nidulans; strains transformed with the hER, 1 nM DES)	effect on growth of a wild type strain (A. nidulans; wild type strain, DES concentrations up to 20 μM)	Inducibility ([1]; 24 h level over time 0 level)	β-gal activity ([1]; time 2 hours) [units per mg protein]	β-gal activity ([1]; time 4 hours) [units per mg protein]	β-gal activity ([1]; time 6 hours) [units per mg protein]	β-gal activity ([1]; time 8 hours) [units per mg protein]	β-gal activity ([1]; time 24 hours) [units per mg protein]
CC/C(=C(/CC)c1ccc(O)cc1)c1ccc(O)cc1 [DES, diethylstilbestrol]	strong growth inhibition	Growth inhibition	do not affect the growth	–	–	–	–	–	–
CCO [ethanol]	–	–	–	16.23	506.66	714.43	1327.44	1431.02	6082.59
